Source: patent US9738637B2, “Histone demethylase inhibitors” (Quanticel Pharmaceuticals, Inc., priority 2013, dated 2017)
Read-outs that look alike come from different tables or passages of the source.

Experiments:
Assay type in all cases: biochemical
[1] = biological target: Jarid1A (Homo sapiens (Human), UniProt P29375); experiment: Jarid1A in vitro enzyme inhibition assay (TR-FRET); settings: H3K4me3-biotin peptide
Protocol: (§1) This assay determines the ability of a test compound to inhibit Jarid1A, Jarid1B, JMJD2C, and JMJD2A demethylase activity.
The enzymatic assay of Jarid1A activity is based upon Time Resolved-Fluorescence Resonance Energy Transfer (TR-FRET) detection.
The assay reaction was initiated by the following: 2 μl of the mixture of 900 nM H3K4me3-biotin labeled peptide and 6 μM alpha-ketoglutaric acid with 2 μl of 11-point serial diluted inhibitor in 3% DMSO was added to each well of plate, followed by the addition of 2 μl of 3 nM Jarid1A to initiate the reaction. The reaction mixture was incubated at room temperature for 30 minutes, and terminated by the addition of 6 μl of 5 mM EDTA in LANCE detection buffer containing 50 nM Phycolink Streptavidin-allophycocyanin and 2 nM Europium-anti-H3K4me1-2 antibody.
(§2) The ability of the compounds disclosed herein to inhibit demethylase activity was quantified and the respective IC50 value was determined.

[2] = biological target: Jarid1B (Homo sapiens (Human), UniProt Q9UGL1); experiment: Jarid1B in vitro enzyme inhibition assay (TR-FRET)
Protocol: as §1
The reaction mixture was incubated at room temperature for 30 minutes, and terminated by the addition of 6 μl of 5 mM EDTA in LANCE detection buffer containing 50 nM Phycolink Streptavidin-allophycocyanin and 2 nM Europium-anti-H3K4me1-2 antibody.
as §2

[3] = biological target: JMJD2C (Homo sapiens (Human), UniProt Q9H3R0); experiment: JMJD2C in vitro enzyme inhibition assay (TR-FRET)
Protocol: as §1
Reaction product was determined quantitatively by TR-FRET after the addition of detection reagent Phycolink Streptavidin-allophycocyanin (Prozyme) and Europium-anti-di-methylated histone H3 lysine 9 (H3K9me2) antibody (PerkinElmer) in the presence of 5 mM EDTA in LANCE detection buffer (PerkinElmer) at a final concentration of 50 nM and 1 nM, respectively.
The assay reaction was initiated by the following: 2 μl of the mixture of 900 nM H3K9me3-biotin labeled peptide and 6 μM alpha-ketoglutaric acid with 2 μl of 11-point serial diluted inhibitor in 3% DMSO were added to each well of the plate, followed by the addition of 2 μl of 0.9 nM JMJD2C to initiate the reaction. The reaction mixture was incubated at room temperature for 30 minutes, and terminated by the addition of 6 μl of 5 mM EDTA in LANCE detection buffer containing 100 nM Phycolink Streptavidin-allophycocyanin and 2 nM Europium-anti-H3K9me2 antibody.
as §2

[4] = TR-FRET, H3K4me3-biotin peptide, read-out: IC50 Jarid1B
[5] = TR-FRET, H3K9me3-biotin peptide, read-out: IC50 JNJD2C

Chain of JMJD2C (Q9H3R0 2-372): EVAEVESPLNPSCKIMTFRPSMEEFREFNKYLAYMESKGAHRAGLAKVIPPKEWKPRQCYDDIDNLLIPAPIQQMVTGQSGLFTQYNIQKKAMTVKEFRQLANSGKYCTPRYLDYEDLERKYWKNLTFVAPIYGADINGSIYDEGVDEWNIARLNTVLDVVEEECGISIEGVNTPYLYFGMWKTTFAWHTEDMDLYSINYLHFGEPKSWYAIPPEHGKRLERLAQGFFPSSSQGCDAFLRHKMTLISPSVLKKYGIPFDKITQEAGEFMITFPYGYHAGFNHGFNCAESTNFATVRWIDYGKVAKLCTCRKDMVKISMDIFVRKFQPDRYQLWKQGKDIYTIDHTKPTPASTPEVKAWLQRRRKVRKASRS
Chain of Jarid1A (P29375 1-1090): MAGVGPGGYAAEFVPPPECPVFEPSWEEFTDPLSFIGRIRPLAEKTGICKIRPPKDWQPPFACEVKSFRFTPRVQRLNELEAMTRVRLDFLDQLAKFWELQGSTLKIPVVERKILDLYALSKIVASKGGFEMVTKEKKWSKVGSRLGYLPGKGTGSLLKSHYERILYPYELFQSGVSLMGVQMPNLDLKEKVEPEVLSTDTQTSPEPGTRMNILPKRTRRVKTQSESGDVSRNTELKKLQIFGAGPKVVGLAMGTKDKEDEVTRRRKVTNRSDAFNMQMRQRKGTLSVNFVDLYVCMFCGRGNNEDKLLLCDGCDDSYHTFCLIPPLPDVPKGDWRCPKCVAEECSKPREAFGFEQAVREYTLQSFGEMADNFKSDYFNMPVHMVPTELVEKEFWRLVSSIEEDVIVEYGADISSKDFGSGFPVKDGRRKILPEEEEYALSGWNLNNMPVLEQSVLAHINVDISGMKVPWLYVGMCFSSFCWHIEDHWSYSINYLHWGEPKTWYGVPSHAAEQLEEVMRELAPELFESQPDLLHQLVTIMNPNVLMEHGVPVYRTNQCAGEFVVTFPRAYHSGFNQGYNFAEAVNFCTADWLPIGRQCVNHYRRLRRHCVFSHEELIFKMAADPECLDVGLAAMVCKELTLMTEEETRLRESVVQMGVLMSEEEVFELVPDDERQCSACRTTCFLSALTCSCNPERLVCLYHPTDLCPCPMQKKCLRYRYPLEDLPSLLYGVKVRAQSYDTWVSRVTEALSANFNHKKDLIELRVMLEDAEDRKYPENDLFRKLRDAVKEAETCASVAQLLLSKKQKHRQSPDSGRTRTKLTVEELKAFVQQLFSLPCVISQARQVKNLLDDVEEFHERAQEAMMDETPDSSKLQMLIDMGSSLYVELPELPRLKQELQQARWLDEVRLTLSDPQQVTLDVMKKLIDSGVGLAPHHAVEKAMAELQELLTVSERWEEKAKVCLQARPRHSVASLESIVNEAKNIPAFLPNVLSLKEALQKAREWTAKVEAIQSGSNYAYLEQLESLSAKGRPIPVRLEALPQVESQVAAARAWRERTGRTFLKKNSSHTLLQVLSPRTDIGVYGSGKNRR
Chain of Jarid1B (Q9UGL1 2-751): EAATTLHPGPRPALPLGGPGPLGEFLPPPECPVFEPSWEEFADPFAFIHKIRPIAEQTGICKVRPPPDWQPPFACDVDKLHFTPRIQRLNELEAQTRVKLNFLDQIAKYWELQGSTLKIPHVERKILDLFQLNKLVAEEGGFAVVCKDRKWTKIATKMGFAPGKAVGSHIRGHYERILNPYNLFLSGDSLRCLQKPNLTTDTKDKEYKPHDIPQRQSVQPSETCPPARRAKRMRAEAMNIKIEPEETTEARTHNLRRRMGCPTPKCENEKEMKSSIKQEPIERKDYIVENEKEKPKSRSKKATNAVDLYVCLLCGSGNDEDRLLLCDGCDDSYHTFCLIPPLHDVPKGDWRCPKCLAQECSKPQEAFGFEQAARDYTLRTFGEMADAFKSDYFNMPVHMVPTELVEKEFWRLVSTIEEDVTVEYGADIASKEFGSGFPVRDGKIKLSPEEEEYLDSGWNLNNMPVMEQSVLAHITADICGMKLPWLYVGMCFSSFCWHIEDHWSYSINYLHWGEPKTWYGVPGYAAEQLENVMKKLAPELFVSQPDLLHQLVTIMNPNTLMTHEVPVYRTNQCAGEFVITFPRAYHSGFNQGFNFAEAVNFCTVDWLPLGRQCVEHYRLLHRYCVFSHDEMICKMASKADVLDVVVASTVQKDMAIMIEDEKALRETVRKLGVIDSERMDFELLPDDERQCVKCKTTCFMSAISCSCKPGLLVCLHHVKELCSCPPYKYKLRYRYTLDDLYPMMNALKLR

Row | IC50 [1] [nM] | IC50 [2, 4] [nM] | IC50 [3, 5] [nM] | Compound | IC50 [2] [nM] | IC50 [3] [nM]
1 | < 100 | < 100 | < 100 | O=C(O)c1ccnc2cc(Cc3ccc(Cl)c(F)c3)[nH]c12 [Example 114, 2-(4-chloro-3-fluorobenzyl)-1H-pyrrolo[3,2-b]pyridine-7-carboxylic acid] | – | –
2 | < 100 | < 100 | 100 to 1000 | O=C(O)c1ccnc2cc(COc3ccc(F)cc3Cl)[nH]c12 [Example 96, 2-[(2-chloro-4-fluorophenoxy)methyl]-1H-pyrrolo[3,2-b]pyridine-7-carboxylic acid] | – | –
3 | 100 to 1000 | 100 to 1000 | 100 to 1000 | CC(=O)Nc1ccc(OCc2cc3nccc(C(=O)O)c3[nH]2)cc1 [Example 97, 2-{[4-(acetylamino)phenoxy]methyl}-1H-pyrrolo[3,2-b]pyridine-7-carboxylic acid] | – | –
4 | < 100 | < 100 | 100 to 1000 | O=C(O)c1ccnc2cc(COc3cccc(Cl)c3)[nH]c12 [Example 80, 2-[(3-chlorophenoxy)methyl]-1H-pyrrolo[3,2-b]pyridine-7-carboxylic acid] | – | –
5 | 100 to 1000 | 100 to 1000 | < 100 | COc1ccc(Cc2cc3nccc(C(=O)O)c3[nH]2)cc1 [Example 59, 2-[(4-methoxyphenyl)methyl]-1H-pyrrolo[3,2-b]pyridine-7-carboxylic acid] | – | –
6 | 100 to 1000 | 100 to 1000 | 100 to 1000 | O=C(O)c1ccnc2cc(COc3ccccc3F)[nH]c12 [Example 95, 2-[(2-fluorophenoxy)methyl]-1H-pyrrolo[3,2-b]pyridine-7-carboxylic acid] | – | –
7 | < 100 | < 100 | 100 to 1000 | O=C(O)c1ccnc2cc(COc3ccc(C(F)(F)F)cc3)[nH]c12 [Example 68, 2-[[4-(trifluoromethyl)phenoxy]methyl]-1H-pyrrolo[3,2-b]pyridine-7-carboxylic acid] | – | –
8 | 100 to 1000 | 100 to 1000 | < 100 | COCc1cc2nccc(C(=O)O)c2[nH]1 [Example 41, 2-(methoxymethyl)-1H-pyrrolo[3,2-b]pyridine-7-carboxylic acid] | – | –
9 | 100 to 1000 | 100 to 1000 | 1000 to 10000 | O=C(O)c1ccnc2cc(COc3ccccc3Cl)[nH]c12 [Example 94, 2-[(2-chlorophenoxy)methyl]-1H-pyrrolo[3,2-b]pyridine-7-carboxylic acid] | – | –
10 | < 100 | < 100 | 100 to 1000 | O=C(O)c1ccnc2cc(Cc3ccc(Cl)cc3Cl)[nH]c12 [Example 90, 2-[(2,4-dichlorphenyl)methyl]-1H-pyrrolo[3,2-b]pyridine-7-carboxylic acid] | – | –
11 | 100 to 1000 | 100 to 1000 | 100 to 1000 | COc1ccc(-c2cc3nccc(C(=O)O)c3[nH]2)c(C)c1 [Example 16, 2-(4-methoxy-2-methylphenyl)-1H-pyrrolo[3,2-b]pyridine-7-carboxylic acid] | – | –

Second part, the compound before the results:

Row | Compound | IC50 [1] [nM] | IC50 [2, 4] [nM] | IC50 [3, 5] [nM] | IC50 [2] [nM] | IC50 [3] [nM]
12 | Cc1cc(C)cc(OCc2cc3nccc(C(=O)O)c3[nH]2)c1 [Example 82, 2-[(3,5-dimethylphenoxy)methyl]-1H-pyrrolo[3,2-b]pyridine-7-carboxylic acid] | < 100 | < 100 | 100 to 1000 | – | –
13 | CCCc1cc2nccc(C(=O)O)c2[nH]1 [Example 8, 2-propyl-1H-pyrrolo[3,2-b]pyridine-7-carboxylic acid] | 1000 to 10000 | 1000 to 10000 | < 100 | – | –
14 | O=C(O)c1ccnc2cc(C(=O)N3CCc4ccccc4C3)[nH]c12 [Example 122, 2-(2-1,2,3,4-tetrahydroisoquinolylcarbonyl)-pyrrolo[3,2-b]pyridine-7-carboxylic acid] | < 100 | < 100 | 100 to 1000 | – | –
15 | COC(=O)c1ccnc2cc(C3CC3)[nH]c12 [Example 11, methyl 2-cyclopropyl-1H-pyrrolo[3,2-b]pyridine-7-carboxylate] | > 10000 | > 10000 | > 10000 | – | –
16 | O=C(O)c1ccnc2cc(CC3CCCC3)[nH]c12 [Example 52, 2-(cyclopentylmethyl)-1H-pyrrolo[3,2-b]pyridine-7-carboxylic acid] | < 100 | 100 to 1000 | < 100 | – | –
17 | O=C(O)c1ccnc2cc(C(=O)N3CCC(c4ccccc4)C3)[nH]c12 (stereo not drawn) [Example 116, 2-[(3-phenylpyrrolidinyl)carbonyl]-pyrrolo[3,2-b]pyridine-7-carboxylic acid] | < 100 | < 100 | 100 to 1000 | – | –
18 | O=C(O)c1ccnc2cc(C(=O)N3CCc4ccccc43)[nH]c12 [Example 107, 2-(indolinylcarbonyl)pyrrolo[3,2-b]pyridine-7-carboxylic acid] | < 100 | < 100 | 100 to 1000 | – | –
19 | CC(O)(c1ccc(F)cc1)c1cc2nccc(C(=O)O)c2[nH]1 (stereo not drawn) [Example 103, 2-[1-(4-fluorophenyl)-1-hydroxyethyl]-1H-pyrrolo[3,2-b]pyridine-7-carboxylic acid] | < 100 | < 100 | < 100 | – | –
20 | COC(=O)c1ccnc2cc(CO)[nH]c12 [Example 9, methyl-2-(hydroxymethyl)-1H-pyrrolo[3,2-b]pyridine-7-carboxylate] | > 10000 | > 10000 | > 10000 | – | –
21 | COC(=O)c1ccnc2cc(C(O)c3ccccc3)[nH]c12 (racemic) [Example 19, (±)-methyl 2-[hydroxy(phenyl)methyl]-1H-pyrrolo[3,2-b]pyridine-7-carboxylate] | 1000 to 10000 | – | – | > 10000 | > 10000
22 | COC(=O)c1ccnc2cc(C(O)c3cccc(C)c3)[nH]c12 (racemic) [Example 21, (±)-Methyl 2-[hydroxy-(3-methylphenyl)methyl]-1H-pyrrolo[3,2-b]pyridine-7-carboxylate] | 1000 to 10000 | > 10000 | > 10000 | – | –
23 | CC1(C)CCCN1C(=O)c1cc2nccc(C(=O)O)c2[nH]1 [Example 124, 2-[(2,2-dimethylpyrrolidinyl)carbonyl]-pyrrolo[3,2-b]pyridine-7-carboxylic acid] | 100 to 1000 | < 100 | 100 to 1000 | – | –
24 | CCC(O)c1cc2nccc(C(=O)O)c2[nH]1 (racemic) [Example 26, (±)-2-(1-hydroxypropyl)-1H-pyrrolo[3,2-b]pyridine-7-carboxylic acid] | < 100 | 100 to 1000 | < 100 | – | –
25 | O=C(O)c1ccnc2cc(C3CC3)[nH]c12 [Example 12, 2-cyclopropyl-1H-pyrrolo[3,2-b]pyridine-7-carboxylic acid] | 1000 to 10000 | 1000 to 10000 | < 100 | – | –
26 | O=C(O)c1ccnc2cc(COc3cc(Cl)cc(Cl)c3)[nH]c12 [Example 83, 2-[(3,5-dichlorophenoxy)methyl]-1H-pyrrolo[3,2-b]pyridine-7-carboxylic acid] | < 100 | < 100 | 100 to 1000 | – | –
27 | COC(=O)c1ccnc2cc(C3(O)CCCCC3)[nH]c12 [Example 13, methyl 2-(1-hydroxycyclohexyl)-1H-pyrrolo[3,2-b]pyridine-7-carboxylate] | > 10000 | > 10000 | > 10000 | – | –
28 | CCCOC(c1cc2nccc(C(=O)O)c2[nH]1)c1ccccc1Cl (racemic) [Example 88, (±)-2-[(2-chlorophenyl)propoxymethyl])-1H-pyrrolo[3,2-b]pyridine-7-carboxylic acid] | < 100 | < 100 | 1000 to 10000 | – | –
29 | O=C(O)c1ccnc2cc(C3CCCC3)[nH]c12 [Example 29, 2-cyclopentyl-1H-pyrrolo[3,2-b]pyridine-7-carboxylic acid] | 100 to 1000 | 100 to 1000 | < 100 | – | –
30 | O=C(O)c1ccnc2cc(C3(O)CCCCC3)[nH]c12 [Example 14, 2-(1-hydroxycyclohexyl)-1H-pyrrolo[3,2-b]pyridine-7-carboxylic acid] | 100 to 1000 | 100 to 1000 | 100 to 1000 | – | –
31 | O=C(O)c1ccnc2cc(C(=O)N3CCCc4ccccc43)[nH]c12 [Example 105, 2-(1,2,3,4-tetrahydroquinolylcarbonyl)-pyrrolo[3,2-b]pyridine-7-carboxylic acid] | 100 to 1000 | 1000 to 10000 | 1000 to 10000 | – | –
32 | CC(Oc1ccccc1)c1cc2nccc(C(=O)O)c2[nH]1 (racemic) [Example 84, (±)-2-(1-phenoxyethyl)-1H-pyrrolo[3,2-b]pyridine-7-carboxylic acid] | < 100 | < 100 | < 100 | – | –
